Reference: patent US20090036352A1, “DRUG DELIVERY SYSTEMS FOR THE PREVENTION AND TREATMENT OF VASCULAR DISEASES COMPRISING RAPAMYCIN AND DERIVATIVES THEREOF” (priority 2002, published 2009)

What was measured:
dialysis patients = test: Prevention or reduction of vascular access dysfunction after insertion of an indwelling catheter in dialysis patients; type: in vivo, human; conditions: daily dose 0.75 to 20 mg, 3 month treatment, observation period 6 months
Protocol: A5. Prevention or Reduction of Vascular Access Dysfunction in Association with the Insertion of an Indwelling Catheter into the Vein of a Patient
One hundred fifty prospective dialysis patients, who undergo successful insertion of an indwelling, large bore catheter, into a vein are selected for the study. […] In addition, patients may also be given a calcium antagonist, nitrates and/or anti-platelet agents. These drugs are administered for 3 consecutive months following catheter insertion.

[1] = Release of drug from coated stents in PBS or PEG/water; type: physicochemical; conditions: PBS pH 7.4 or PEG 400/water 40/60 v/v, 37° C., stable = less than 10% of variation of the drug release
Protocol: Four 2 cm pieces of coated stents as described above are placed into 100 ml of phosphate buffer solution (PBS) having a pH of 7.4. Another 4 pieces from each series are placed into 100 ml polyethylene glycol (PEG)/water solution (40/60 v/v, MW of PEG=400). The stent pieces are incubated at 37° C. in a shaker. The buffer and PEG solutions are changed daily and different assays are performed on the solution to determine the released 40-O-(2-hydroxyethyl)-rapamycin concentrations. Such assays can show a stable release of 40-O-(2-hydroxyethyl)-rapamycin from coated stents for more than 45 days. By the term “stable release of 40-O-(2-hydroxyethyl)-rapamycin” is meant less than 10% of variation of the drug release. Controlled release techniques used by a person skilled in the art allow an unexpected easy adaptation of the required drug release rate. Thus, by selecting appropriate amounts of reactants in the coating mixture it is possible to easily control the bioeffectiveness of the rapamycin or rapamycin derivastive coated stents.

[2] = tested on: rat carotid artery balloon injury model; test: Inhibition of late neointimal lesion formation in the 28 day rat carotid artery balloon injury model; type: in vivo; conditions: for percent inhibition of neointimal lesion formation: oral, 28 days post-balloon injury
Protocol: A1. Inhibition of Late Neointimal Lesion Formation in the 28 Day Rat Carotid Artery Balloon Injury Model
Compounds of formula I are tested in the following rat model.
Rats are dosed orally with placebo or a compound of formula I. Daily dosing starts 3 days prior to surgery and continues for 31 days. Rat carotid arteries are balloon injured using a method described by Clowes et al. Lab. Invest. 1983; 49; 208-215. Following sacrifice at 28 days post-balloon injury, carotid arteries are removed and processed for histologic and morphometric evaluation. […] For example for 40-O-(2-hydroxyethyl)-rapamycin administered at 0.5, 1.0, and 2.0 mg/kg, the percent inhibition is similar at all three doses: inhibition is 31% at the lowest dose (0.5 mg/kg) and 39% at the highest dose (2.0 mg/kg). Compounds of formula I, e.g. 40-O-(2-hydroxyethyl)-rapamycin, have the beneficial effect to inhibit lesions at 4 weeks post-ballooning.

[3] = tested on: New Zealand White rabbit iliac arteries; test: Inhibition of restenosis at 28 days in the rabbit iliac stent model; type: in vivo
Protocol: A.2 Inhibition of Restenosis at 28 Days in the Rabbit Iliac Stent Model
A combined angioplasty and stenting procedure is performed in New Zealand White rabbit iliac arteries. Iliac artery balloon injury is performed by inflating a 3.0×9.0 mm angioplasty balloon in the mid-portion of the artery followed by “pull-back” of the catheter for 1 balloon length. Balloon injury is repeated 2 times, and a 3.0×12 mm stent is deployed at 6 atm for 30 seconds in the iliac artery. Balloon injury and stent placement is then performed on the contralateral iliac artery in the same manner. A post-stent deployment angiogram is performed. All animals receive oral aspirin 40 mg/day daily as anti-platelet therapy and are fed standard low-cholesterol rabbit chow. Twenty-eight days after stenting, animals are anesthetized and euthanized and the arterial tree is perfused at 100 mmHg with lactated Ringer's for several minutes, then perfused with 10% formalin at 100 mmHg for 15 minutes. The vascular section between the distal aorta and the proximal femoral arteries is excised and cleaned of periadventitial tissue. The stented section of artery is embedded in plastic and sections are taken from the proximal, middle, and distal portions of each stent. All sections are stained with hematoxylin-eosin and Movat pentachrome stains. Computerized planimetry is performed to determine the area of the internal elastic lamina (IEL), external elastic lamina (EEL) and lumen. The neointima and neointimal thickness is measured both at and between the stent struts. The vessel area is measured as the area within the EEL. Data are expressed as mean ±SEM. Statistical analysis of the histologic data is accomplished using analysis of variance (ANOVA) due to the fact that two stented arteries are measured per animal with a mean generated per animal. A P<0.05 is considered statistically significant.
A compound of formula I, e.g. 40-O-(2-hydroxyethyl)-rapamycin, is administered orally by gavage at a loading dose of 1.5 mg/kg one day prior to stenting, then dosed at 0.75 mg/kg/day from the day of stenting until day 27 post-stenting. In this model, the treatment with the compounds of formula I results in a marked reduction in the extent of restenotic lesion formation: for example, the treatment with 40-O-(2-hydroxyethyl)-rapamycin produces a significant (P<0.03) reduction in neointimal thickness (40% reduction), neointimal area (24% reduction), and percent arterial stenosis (26% reduction) with a significant 32% increase in lumen area. There is extensive neointimal formation in placebo-treated animals at 28 days, with the lesions consisting of abundant smooth muscle cells in proteoglycan/collagen matrix and apparent full endothelial healing.

[4] = tested on: ballooned carotid of Sprague Dawley rats; test: Inhibition of restenosis at 14 days in the rat carotid stent model, perivascular local delivery; type: in vivo; conditions: local perivascular administration, 10 to 200 μg/day
Protocol: A.3 Inhibition of Restenosis at 14 Days in the Rat Carotid Stent Model
Male Sprague Dawley rats weighing […] are housed individually and allowed to acclimate prior to surgery. All animals receive standard rat chow and water ad libitum. Group size is 12 animals per group.
The drug(s) administration is perivascular. A segment of ballooned carotid is encircled with a 1 cm length of silastic tubing (0.25 inch inside diameter, 0.47 inch outside diameter) to which is attached a catheter which feeds into an osmotic pump containing either compound or vehicle. This delivery system provides continuous, local delivery to the adventitia of the wrapped portion of vessel. Local drug(s) administration ranges between 5 μg and 10 mg, locally per day, depending on the solubility characteristics of the individual compounds. […]
Animals are killed at 14 days post-balloon injury. […] Animals are killed by administration of an overdose of ketamine and rompun, the osmotic pumps are recovered and the volume of remaining content is recorded to ensure that pump failure has not occurred.
Carotid, arteries are excised and immersion fixed, then transferred to Ringer's solution. […] The intimal lesion area and the medial area are determined by measurement of the internal elastic lamina, the external elastic lamina and the vessel/lumen interface.

[5] = oral gavage, loading 1.5 mg/kg then 0.75 mg/kg/day to day 27, 28 days post-stenting, P<0.03

## CO[C@H]1C[C@@H]2CC[C@@H](C)[C@@](O)(O2)C(=O)C(=O)N2CCCC[C@H]2C(=O)O[C@H]([C@H](C)C[C@@H]2CC[C@@H](OCCO)[C@H](OC)C2)CC(=O)[C@H](C)/C=C(\C)[C@@H](O)[C@@H](OC)C(=O)[C@H](C)C[C@H](C)/C=C/C=C/C=C/1C [40-O-(2-hydroxyethyl)-rapamycin]
Dialysis patients
  prevention or reduction of vascular access dysfunction: demonstrate the efficacy
[1]
  duration of stable release from coated stents: more than 45 days
[2]; oral daily dosing from 3 days prior to surgery for 31 days, 0.5 to 2.0 mg/kg
  neointimal lesion formation at 28 days following balloon injury: significantly reduce neointimal lesion formation
[2]; 0.5 mg/kg
  percent inhibition of neointimal lesion formation: 31%
[2]; 2.0 mg/kg
  percent inhibition of neointimal lesion formation: 39%
[3]; majority of arterial segments, 28 days post-stenting
  histology of the intima of stented arterial segments: the intima is well healed
[3]; n=4 arteries, 28 days post-stenting
  endothelialization of stented arteries (scanning electron microscopic analysis): 84%
[3]; oral gavage, loading 1.5 mg/kg then 0.75 mg/kg/day to day 27, 28 days post-stenting
  increase in lumen area: 32%
[3]; [5]
  reduction in neointimal area: 24%
  reduction in neointimal thickness: 40%
  reduction in percent arterial stenosis: 26%
[4]
  neointimal lesion formation at 14 days post ballooning: reduces neointimal lesion formation
